Counter-ions that a name gives are not always drawn.
How the values were obtained:
[1] = system: NIH 3T3 cells; experiment: CCK-8 cytotoxicity assay, NIH 3T3; assay type: cell-based, mouse; conditions: NIH 3T3, 50 μg/mL Doxy, 24 hour
Experimental: (§1) The cytotoxicity of each NP formulation was evaluated for HUVEC and […] using a CCK-8 viability assay. Briefly, HUVEC and NIH 3T3 cells were cultured at a density of ~5000 cells/cm^2 in EGM-2 endothelial cell growth medium and DMEM supplemented with 10% (v/v) FBS and 1% (v/v) penicillin/streptomycin, respectively at 37° C. with 5% CO2. After 24 hours, cells were treated with Doxy, Doxy-GNPs, CS-Doxy-GNP and HA-CS-Doxy-GNP at a Doxy concentration of 50 μg/mL in the respective media. Cells treated with media only and wells containing no cells or NPs were included as PCs and NCs, respectively. Following a 24 hour incubation, the media was removed, cells were rinsed with 1×PBS three times and 10 μL of CCK-8 solutions was added to each well. After incubation for 4 hours at 37° C. with 5% CO2, the absorbance was read at 450 nm (OD450) using a plate reader. Normalized cell viability was calculated using the following equation. [formula]

[2] = system: V. vulnificus; experiment: Ex vivo pig skin infection model; assay type: cell-based
Experimental: Frozen porcine skin tissue was thawed and washed with 1×PBS. A biopsy punch (8 mm) was used to create tissue sections from freshly thawed tissue. A 1.5-mm deep well was created in the center of each of these skin samples using a smaller 3-mm biopsy punch. The tissue pieces were sterilized by immersing in 70% (v/v) ethanol for 2 hours and drying for 30 minutes in a CellGard™ Energy Saver class II, type A2 biosafety cabinet (NuAire, Plymouth, MN). The sterile tissue was then placed on soft TSB agar plates containing 0.5% (w/v) agar with 100 μg/mL vancomycin. Note that vancomycin was included as a common antibiotic against gram-positive to prevent contamination by non-V. vulnificus bacteria. The skin was then infected by adding 10 μL of V. vulnificus suspension (OD600=0.1) in the 3 mm diameter well in each sample. The inoculated skin pieces were incubated for 48 hours at 37° C. in a humidified chamber. The tissue samples were transferred to a new agar plate every 24 hours. At 48 hours, 15 μL of Doxy or HA-CS-Doxy-GNP at a Doxy concetration of 10, 50 or 100 μg/mL was added to the infected skin samples and incubated for a further 24 hours. Controls of tissue inoculated with bacteria treated with LBS at pH 5.5 only and tissue without bacteria treated with LBS at pH 5.5 were included as controls. […]

[3] = system: V. vulnificus biofilm; experiment: Colony counting assay of treated mature biofilm; assay type: cell-based; conditions: 50 μg/mL Doxy, 24 h
Experimental: The effect of treatment with free Doxy, Doxy-GNP, CS-Doxy-GNP, and HA-CS-Doxy-GNP of 48 h aged V. vulnificus biofilms was assessed by examining biofilm morphology and quantifying biomass and cell viability. Morphology assessment via ESEM, LIVE/DEAD viability staining, colony enumeration and crystal violet staining were performed after incubation of the biofilms with the various treatment groups at a Doxy concentration of 50 μg/mL in 1×PBS or with a 1×PBS control for 24 hours at 37° C. Colony enumeration was also conducted by first dispersing biofilms formed in 48-well plates by sonication following treatment. Each sample was then serially diluted in LB, and […] of the dilution was plated onto LB agar plates. Agar plates were imaged and CFU were counted following incubation for 24 h at 37° C.

[4] = system: V. vulnificus biofilm; experiment: Eradication of mature biofilm, crystal violet assay; assay type: cell-based; conditions: reduces initial biomass of 48 h mature biofilm by 90%, 24 h treatment
Experimental: Unless otherwise noted, all biofilm experiments utilized the following procedure for the formation of a 48 h matured biofilm. V. vulnificus inoculated LB medium was incubated for 18 h with shaking (100 rpm) at 37° C. This bacteria suspension was dilute 1:500 (v/v) in LB media supplemented with 2% w/v NaCl (LB S) at pH 5.5. The optical density of the bacteria suspension at 600 nm (OD600) was monitored overtime. Once in its logarithmic growth phase (OD600=0.1, which is ~1.5×10^7 CFU/mL), biofilms were formed by static incubation of bacteria at 37° C. for 48 hours either in chamber slides of multi-well plates. Every 24 hours, the biofilms were gently washed three times with 1×PBS and add fresh LBS was added.
The effect of treatment with free Doxy, Doxy-GNP, CS-Doxy-GNP, and HA-CS-Doxy-GNP of 48 h aged V. vulnificus biofilms was assessed by examining biofilm morphology and quantifying biomass and cell viability. Morphology assessment via ESEM, LIVE/DEAD viability staining, colony enumeration and crystal violet staining were performed after incubation of the biofilms with the various treatment groups at a Doxy concentration of 50 μg/mL in 1×PBS or with a 1×PBS control for 24 hours at 37° C.
Biofilm biomass was assessed for 48 h mature biofilms formed in 96-well plates. […] Following 24 hours of incubation, the biofilm biomass was quantified using crystal violet staining as described earlier.

[5] = system: V. vulnificus biofilm; experiment: Inhibition of biofilm formation, crystal violet staining; assay type: cell-based; conditions: inhibits biofilm formation by 80%, 24-hour incubation
Experimental: The investigate the effect of free Doxy and Doxy-loaded NPs on V. vulnificus biofilm formation, V. vulnificus was prepared for biofilm formation. When adding the bacteria in its logarithmic growth phase to 96-well plates, free Doxy or Doxy-loaded NPs were added simultaneously at varying concentrations. Bacteria lacking Doxy treatment were included as a PC and LBS without bacteria was included as a NC. Following a 24-hour incubation in static conditions, the biofilm biomass was quantified using crystal violet staining. Briefly, the supernatant media was gently removed, and biofilms were washed three times with 1×PBS. Next biofilms were stained with 200 μL 0.1% (w/v) crystal violet in 1×PBS for 15 minutes, followed by three 1×PBS washes. The stain was eluted by incubation with 200 μL of 100% ethanol with shaking (100 rpm) for 2 min at RT. The absorbance at 570 nm (OD570) was measured using a plate reader. Normalized biofilm biomass was calculated as follows: [formula]

[6] = system: HUVEC; experiment: CCK-8 cytotoxicity assay, HUVEC; assay type: cell-based, human; conditions: 50 μg/mL Doxy, 24 hour
Experimental: as §1

[7] = system: V. vulnificus; experiment: MIC microdilution assay against planktonic bacteria; assay type: cell-based; conditions: Vibrio vulnificus, 16-18 hours, Doxy or loaded Doxy concentration
Experimental: The minimum inhibitory concentrations (MICs) of NPs against V. vulnificus were determined using the microdilution assay as previously reported. See T. Gwisai, N. R. Hollingsworth, S. Cowles, N. Tharmalingam, E. Mylonakis, B. B. Fuchs and A. Shukla, Biomedical Materials, 2017, 12, 045010; D. Alkekhia and A. Shukla, Journal of Biomedical Materials Research Part A, 2019, 107, 1324-1339. Free Doxy and Doxy loaded NPs were diluted 2-fold in LB in 96-well plates to obtain concentrations of Doxy or loaded Doxy ranging from 0.03-4.0 μg/mL. V. vulnificus in LB media in its logarithmic growth phase was added to each well at a final concentration of 1×10^5 colony forming units (CFU)/mL. Positive control (PC) of bacteria cultured in LB only and negative control (NC) of LB without bacteria were included. After 16-18 hours of shaking (100 rpm) at 37° C., OD600 was measured using a plate reader. The normalized bacteria density (%) was calculated as follows: […]

## C[C@H]1c2cccc(O)c2C(=O)C2=C(O)[C@]3(O)C(=O)C(C(N)=O)=C(O)[C@@H](N(C)C)[C@@H]3[C@@H](O)[C@@H]21 [Doxy, doxycycline hydrochloride]
[1]
  cell viability: about 70%
[2]; 50 μg/mL or 100 μg/mL Doxy, 24 hours
  number of living bacterial cells compared with untreated pig skin: significantly reduced
[2]; 2 days infection, 24 hours treatment, 100 μg/mL Doxy
  mean value of CFU/mL relative to untreated samples (100%): 16.42%
[3]
  reduction in CFU compared to no treatment control: 2 log reduction
[4]
  MBEC90: about 50 μg/mL
[5]
  MBIC80: about 16 μg/mL
[6]
  cell viability: about 60%
[7]
  MIC: 0.5 µg/mL
